8 compounds from paper PMC11535068, “Design, in silico studies and biological evaluation of novel chalcones tethered triazolo[3,4-a]isoquinoline as EGFR inhibitors targeting resistance in non-small cell lung cancer” (Scientific Reports, 2024) can be followed below.

For data set [1], the system named is WI-38. Description: MTT assay on normal lung cell line. Particulars: Homo sapiens, WI-38, 24 h, read-out: IC50 WI-38.
Description: (§4) Cell line cells were purchased from the American Type Culture Collection (ATCC, Manassas, VA) and were cultured according to the supplier’s instructions. […] The media was changed every 48 h, and the cells were split when 80–90% confluence was reached. Cell viability was evaluated by MTT assay.
Data set [2] concerns HT-29. Briefly: MTT antiproliferative assay. Particulars: Homo sapiens, HT-29, 24 h, read-out: IC50 HT-29. Background: Tetrazolium dyes change colour on reduction, which living cells bring about.
Description: as §4
Data set [3] relates to MCF-7. Briefly: MTT antiproliferative assay. The note with it: Homo sapiens, MCF7, 24 h, read-out: IC50 MCF-7.
Description: as §4
Data set [4] relates to PC3. Briefly: MTT antiproliferative assay. Particulars: Homo sapiens, PC-3, 24 h, read-out: IC50 PC3.
Description: as §4
Data set [5] concerns the target T1, total EGFR (Homo sapiens, UniProt P00533).
T1 construct: endogenous in cells; host or cells: A549
Briefly: EGFR inhibition assay on A549 cells (cloud clone SEA757Hu kit). It is filed as cell-based. Particulars: for IC50: total EGFR, A549 cells. On the procedure: (§1) EGFR inhibition assay was performed on A549 cancer cells using cloud clone product SEA757Hu 96 Ki, according to manufacturer’s instructions protocol. The homogeneous time-resolved fluorescence assay method was used to assess the inhibitory activity of 3e and 3f against EGFR^WT, EGFR^T790M and EGFR^L858R. The EGFR proteins (EGFR^WT, EGFR^T790M and EGFR^L858R) were obtained from Signalchem (BC V6V 2J2, Canada). ATP and other chemicals were obtained from Sigma. […] After 30 min, the reaction was stopped by adding detection reagents containing EDTA.

Data set [6] has as its system HCT-116. Briefly: MTT antiproliferative assay. The note with it: Homo sapiens, HCT-116, 24 h, read-out: IC50 HCT-116.
Description: as §4
The subject of data set [7] is A549. Briefly: MTT antiproliferative assay. Particulars: Homo sapiens, A549, 24 h, read-out: IC50 A549.
Description: as §4
In data set [8] the test system is A549 lung cancer cells. Description: Annexin V-FITC/PI flow cytometric apoptosis analysis. It is filed as cell-based, human. The note with it: A549, 24 h, 3e 2.3 µM, 3f 1.15 µM (IC50). The protocol: (§2) Quantitation of DNA content was evaluated using the Annexin V-FITC Apoptosis Detection kit (BioVision, CA, USA). Dual staining for Annexin-V and PI allows the discrimination between live cells, necrotic cells, and cells in different phases of apoptosis. […] Then, cells were collected and washed with 1X phosphate-buffered saline. The cells were stained in the dark with annexin V-FITC and propidium iodide in a binding buffer and analyzed using the flow cytometer. The cell cycle profiles were analysed using MultiCycle software (Phoenix Flow Systems, San Diego, CA)[60].
On the technique in general: A flow cytometer gives signals particle by particle.

Data set [9] has as its system P53. Description: RT-qPCR gene expression in A549 cells. It is filed as cell-based, human. The note with it: A549, 24 h, vs vehicle cells. On the procedure: (§3) The real-time polymerase chain reaction (RT-qPCR) technique was used to evaluate the gene expression. A panel of eight genes (P53, BAX, Caspase-3, Caspase-8, Caspase-9, MMP1, CDK4, and Bcl2) was chosen to estimate the compounds’ ability to induce apoptosis. A549 cancer cells were treated with 3e and 3f compounds for 24 h before total RNA extraction. While untreated A549 cancer cells were utilized as a negative control. One-step RT-qPCR was performed using the iScript™ One-Step RT-PCR kit with SYBR®. The primer pairs sequences for each gene used are mentioned in Table 7. Control reactions were formed […] or without the reverse transcriptase enzyme.
For orientation: Real-time PCR tracks product formation cycle by cycle.

Data set [10] has as its system Caspase 8. Briefly: RT-qPCR gene expression in A549 cells. It is filed as cell-based, human. Particulars: A549, 24 h, vs vehicle cells, beta-actin housekeeping gene. On the procedure:
as §3

In data set [11] the test system is Bcl2. Description: RT-qPCR gene expression in A549 cells. The note with it: A549, 24 h, vs vehicle cells, beta-actin housekeeping gene. It counts as cell-based, human. On the procedure:
as §3

Data set [12] has as its system MMP1. Description: RT-qPCR gene expression in A549 cells. It is filed as cell-based, human. Particulars: A549, 24 h, vs vehicle cells, beta-actin housekeeping gene. On the procedure:
as §3

The subject of data set [13] is Caspase 9. Briefly: RT-qPCR gene expression in A549 cells. It is filed as cell-based, human. The note with it: A549, 24 h, vs vehicle cells, beta-actin housekeeping gene. The protocol:
as §3

The subject of data set [14] is Bax. Description: RT-qPCR gene expression in A549 cells. It counts as cell-based, human. The note with it: A549, 24 h, vs vehicle cells. The protocol: as §3
Data set [15] deals with Caspase 3. Briefly: RT-qPCR gene expression in A549 cells. It is filed as cell-based, human. Particulars: A549, 24 h, vs vehicle cells, beta-actin housekeeping gene. On the procedure: as §3
Data set [16] relates to CDK4. Description: RT-qPCR gene expression in A549 cells. It counts as cell-based, human. The note with it: A549, 24 h, vs vehicle cells, beta-actin housekeeping gene. On the procedure:
as §3

The target of data set [17] is T2, EGFR^L858R (Homo sapiens, UniProt P00533, L858R).
T2 construct: purchased Signalchem
Briefly: Homogeneous time-resolved fluorescence EGFR-TK assay. It counts as biochemical. Particulars: selectivity index. On the procedure: as §1

Data set [18] concerns the target T3, EGFR^T790M (Homo sapiens, UniProt P00533, T790M).
T3 construct: purchased Signalchem
The description is as above. It is filed as biochemical. The note with it: selectivity index. The protocol: as §1

Data set [19] deals with A549 lung cancer cells. Briefly: Cell cycle analysis (DNA content, flow cytometry). It is filed as cell-based, human. The note with it: A549, 24 h, at IC50. On the procedure: as §2

Regarding `COc1cc2c(cc1OC)C1N(CC2)C(C(=O)C=Cc2cn(-c3ccccc3)nc2-c2ccccc2)=NN1c1ccccc1` (centres unmarked) [Compound 3a, 1-(8,9-Dimethoxy-1-phenyl-1,5,6,10b-tetrahydro-[1,2,4]triazolo[3,4-a]isoquinolin-3-yl)-3-(1,3-diphenyl-1H-pyrazol-4-yl)prop-2-en-1-one], the melting point (usually the temperature of the solid-liquid transition) lay in the range of 180 to 182 °C. The IC50 – broadly, the concentration that gives 50% inhibition – in data set [1] was found to be 890.44 ± 0.13 µM. In data set [2], the IC50 turned out to be 16.2 ± 0.57 µM. The IC50 in [3] was found to be 8.07 ± 0.1 µM. Moreover, in data set [4], the IC50 is 3.14 ± 1.76 µM. Also, the IC50 in data set [5] is 1.62 ± 0.23 µM. For the same compound, the IC50 in [6] is 8.15 ± 0.54 µM. Also, the IC50 in data set [7] came out at 1.98 ± 0.5 µM.

For the compound `COc1cc2c(cc1OC)C1N(CC2)C(C(=O)C=Cc2cn(-c3ccccc3)nc2-c2ccccc2)=NN1c1ccc(C)cc1` (centres unmarked) [Compound 3b, 1-(8,9-Dimethoxy-1-(p-tolyl)-1,5,6,10b-tetrahydro-[1,2,4]triazolo[3,4-a]isoquinolin-3-yl)-3-(1,3-diphenyl-1H-pyrazol-4-yl)prop-2-en-1-one], the melting point fell in the range of 184 to 186 °C. In data set [1], the IC50 came to 669.88 ± 0.26 µM. For the same compound, the IC50 in data set [2] was 5.05 ± 0.42 µM. The IC50 in data set [3] stood at 10 ± 0.23 µM. The IC50 in data set [4] came out at 6.61 ± 1.63 µM. Also, the IC50 in data set [5] was found to be 1.89 ± 0.37 µM. For the same compound, the IC50 in data set [6] is 9.41 ± 0.47 µM. Further, the IC50 in data set [7] stood at 2.45 ± 0.68 µM.

In the case of `COc1ccc(N2N=C(C(=O)C=Cc3cn(-c4ccccc4)nc3-c3ccccc3)N3CCc4cc(OC)c(OC)cc4C32)cc1` (centres unmarked) [Compound 3c, 1-(8,9-Dimethoxy-1-(4-methoxyphenyl)-1,5,6,10b-tetrahydro-[1,2,4]triazolo[3,4-a]isoquinolin-3-yl)-3-(1,3-diphenyl-1H-pyrazol-4-yl)prop-2-en-1-one], the melting point is 186 to 188 °C. In data set [1], the IC50 came to 451.08 ± 0.11 µM. Moreover, the IC50 in [2] is 4.69 ± 0.55 µM. Further, the IC50 in data set [3] turned out to be 4.07 ± 0.38 µM. The IC50 in data set [4] was found to be 3.22 ± 1.37 µM. This compound also came in with an IC50 in data set [5] of 0.059 ± 0.16 µM. For the same compound, the IC50 in data set [6] stood at 5.4 ± 0.73 µM. Moreover, in data set [7], the IC50 is 5.26 ± 0.49 µM.

Turning to `COc1cc2c(cc1OC)C1N(CC2)C(C(=O)C=Cc2cn(-c3ccccc3)nc2-c2ccccc2)=NN1c1ccc(Cl)cc1` (centres unmarked) [Compound 3d, 1-(1-(4-Chlorophenyl)-8,9-dimethoxy-1,5,6,10b-tetrahydro-[1,2,4]triazolo[3,4-a]isoquinolin-3-yl)-3-(1,3-diphenyl-1H-pyrazol-4-yl)prop-2-en-1-one], the melting point lay in the range of 216 to 218 °C. The IC50 in data set [1] came to 468.92 ± 0.17 µM. The IC50 in data set [2] turned out to be 15 ± 0.58 µM. Further, the IC50 in [3] came out at 13.5 ± 0.29 µM. Also, the IC50 in data set [4] was 5.05 ± 1.43 µM. It took 0.066 µM to reach half-maximal inhibition in [5] (IC50). Also, the IC50 in data set [6] stood at 14.1 ± 0.66 µM. Besides, in [7], the IC50 was 4.68 ± 0.41 µM.

Regarding `COc1cc2c(cc1OC)C1N(CC2)C(C(=O)C=Cc2cn(-c3ccccc3)nc2-c2ccccc2)=NN1c1ccc(Br)cc1` (centres unmarked) [Compound 3e, 1-(1-(4-Bromophenyl)-8,9-dimethoxy-1,5,6,10b-tetrahydro-[1,2,4]triazolo[3,4-a]isoquinolin-3-yl)-3-(1,3-diphenyl-1H-pyrazol-4-yl)prop-2-en-1-one], the melting point was in the range of 220 to 222 °C. Further, in [1], the IC50 was determined as 1731.9 ± 0.21 µM. For the same compound, the IC50 in data set [2] was found to be 4.2 ± 0.38 µM. In data set [8] (vehicle 0.21%), the “Apoptosis Late (%)” value is 4.5%. In addition, the “Apoptosis Early (%)” value in data set [8] (vehicle 0.49%) worked out at 4.26%. The “Apoptosis Total (%)” value in data set [8] (vehicle 0.70%) is on record as 8.76%. The “Necrosis (%)” value in [8] (vehicle 1.58%) is 7.26%. Moreover, the IC50 in [3] was determined as 4.21 ± 0.41 µM. The “p53 gene expression (in words)” value in data set [9] is on record as “significantly upregulated”. The “Caspase 8 gene expression fold change” value in data set [10] came to 4.23 fold. The “Bcl-2 gene expression fold change” value in data set [11] stood at 0.18 fold. Moreover, in data set [12], the “MMP1 gene expression fold change” value stood at 0.37 fold. For the same compound, in data set [13], the “Caspase 9 gene expression fold change” value turned out to be 6.55 fold. The “Bax gene expression (in words)” value in data set [14] is listed as “significantly upregulated”. In addition, the “Caspase 3 gene expression fold change” value in [15] is recorded as 9.29 fold. Also, in data set [16], the “CDK4 gene expression fold change” value turned out to be 0.44 fold. The IC50 in [4] worked out at 2.72 ± 1.36 µM. Moreover, the “Fold more efficient in inhibiting EGFR than lapatinib” value in data set [5] (total EGFR IC50 ratio to Lapatinib) is listed as 1.42 fold. Moreover, the “SI^a = EGFR^WT IC50/ EGFR^L858R IC50” value in data set [17] was 15.56. Moreover, the “SI^b = EGFR^WT IC50/ EGFR^T790M IC50” value in data set [18] came to 2.63. Also, the IC50 in data set [6] amounted to 14.8 ± 0.31 µM. For the same compound, the “DNA content Pre-G1%” value in data set [19] (vehicle 2.28%) was determined as 16.02%. Besides, the “DNA content G2/M%” value in data set [19] (vehicle 8.99%) was 22.74%. Moreover, the “DNA content S%” value in [19] (vehicle 44.26%) stood at 35.93%. In addition, in data set [19] (vehicle 46.75%), the “DNA content G0–G1%” value was found to be 41.33%. In addition, the IC50 in [7] came out at 2.3 ± 0.11 µM.

For the compound `O=c1[nH]cc(F)c(=O)[nH]1` [Compound 5-FU, 5-fluorouracil, reference compound], the IC50 in data set [1] worked out at 210.69 ± 0.19 µM; in data set [2], 203.6 ± 0.48 µM; in data set [3], 160.3 ± 0.47 µM; in data set [4], 178.2 ± 0.34 µM; in [6], 171.5 ± 0.23 µM; in data set [7], 66.24 ± 0.36 µM.

As for `C#Cc1cccc(Nc2ncnc3cc(OCCOC)c(OCCOC)cc23)c1` [Erlotinib, reference compound], the IC50 in data set [1] is 1431.6 ± 0.22 µM; in data set [2], 9.5 ± 0.46 µM; in [4], 14.4 ± 0.78 µM; in data set [7], 7.32 ± 0.52 µM.

`CS(=O)(=O)CCNCc1ccc(-c2ccc3ncnc(Nc4ccc(OCc5cccc(F)c5)c(Cl)c4)c3c2)o1` [Lapatinib, reference compound]: the IC50 in data set [1] came to 1239.4 ± 0.18 µM; in [2], 8.23 ± 0.33 µM; in data set [3] it was 5.02 ± 1.1 µM; in [4], 13.7 ± 0.89 µM; in data set [6] it was 5.92 ± 0.45 µM; in data set [7] it was 9.66 ± 0.44 µM.
